Measured values: the supplement of paper PMC11451515

Legend:
Settings in all cases: 48 h
NOMO1 [1] = assay: cell viability relative to DMSO control; higher = less cytotoxic
Outline: (§1)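 NOMO1 or SEM cells were plated at 500 cells/well and P12-Ichikawa cells at 1000 cells/well in 1536-well plates (5 μl), after each leukemia line had been adapted for at least four passages in each medium. Pin dosing delivered library compounds in DMSO at 11 threefold concentrations, 47 μM to 0.79 nM. CellTiter-Glo One luminescence was read after 48 h at 37°C. Viability is reported as a per-plate percentage of DMSO wells, with cell-free wells as background.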

SEM cells [2] = assay: as above
Outline: as §1

P12-Ichikawa [3] = assay: as above
Outline: as §1

NOMO1 [4] = assay: AUC of viability dose-response curve (% viability x log10 dose units); higher = less sensitive
Outline: (§2)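 Leukemia cells adapted to each medium were seeded at 500 or 1000 cells/well in 1536-well plates and dosed with library compounds in DMSO at 11 threefold doses from 47 μM to 0.79 nM for 48 h at 37°C. CellTiter-Glo One luminescence was normalised per plate to DMSO and cell-free wells, then fitted with a four-parameter log-logistic model over log10 doses. Area under the curve was taken from this fit by the trapezoidal rule, with curves above full viability scaled and curves failing quality control removed.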

SEM cells [5] = assay: as above
Outline: as §2

P12-Ichikawa [6] = assay: as above
Outline: as §2

CCN1C[C@]2(OC(=O)c3ccccc3NC(C)=O)CC[C@H](OC)[C@@]34[C@@H]2C[C@@H]([C@@H]13)[C@@]1(O)C[C@H](OC)[C@H]2C[C@@H]4[C@]1(O)[C@H]2OC
cell viability [%]
Settings	NOMO1 [1]	P12-Ichikawa [3]	SEM cells [2]
HPLM + 10% dialyzed FBS, 0.000781 µM	106	91.8	85
HPLM + 10% dialyzed FBS, 0.00234 µM	101	109	100
HPLM + 10% dialyzed FBS, 0.00702 µM	118	110	99
HPLM + 10% dialyzed FBS, 0.0211 µM	101	113	105
HPLM + 10% dialyzed FBS, 0.0632 µM	108	114	99.6
HPLM + 10% dialyzed FBS, 0.19 µM	88.3	109	104
HPLM + 10% dialyzed FBS, 0.569 µM	118	106	98.2
HPLM + 10% dialyzed FBS, 1.71 µM	103	111	106
HPLM + 10% dialyzed FBS, 5.12 µM	112	103	92.5
HPLM + 10% dialyzed FBS, 15.4 µM	93.2	106	85.2
HPLM + 10% dialyzed FBS, 46.1 µM	114	108	88.6
RPMI 5 mM glucose + 10% FBS, 0.000781 µM	96.3	105	79.5
RPMI 5 mM glucose + 10% FBS, 0.00234 µM	99.4	109	96.6
RPMI 5 mM glucose + 10% FBS, 0.00702 µM	101	116	101
RPMI 5 mM glucose + 10% FBS, 0.0211 µM	106	104	102
RPMI 5 mM glucose + 10% FBS, 0.0632 µM	103	113	106
RPMI 5 mM glucose + 10% FBS, 0.19 µM	91.6	111	99.8
RPMI 5 mM glucose + 10% FBS, 0.569 µM	118	119	103
RPMI 5 mM glucose + 10% FBS, 1.71 µM	107	108	90.9
RPMI 5 mM glucose + 10% FBS, 5.12 µM	95.1	99.1	87.9
RPMI 5 mM glucose + 10% FBS, 15.4 µM	101	105	65.6
RPMI 5 mM glucose + 10% FBS, 46.1 µM	107	114	71
RPMI 5 mM glucose + 10% dialyzed FBS, 0.000781 µM	98	103	88.2
RPMI 5 mM glucose + 10% dialyzed FBS, 0.00234 µM	104	111	94.6
RPMI 5 mM glucose + 10% dialyzed FBS, 0.00702 µM	120	115	97.5
RPMI 5 mM glucose + 10% dialyzed FBS, 0.0211 µM	99.1	110	101
RPMI 5 mM glucose + 10% dialyzed FBS, 0.0632 µM	105	117	81.9
RPMI 5 mM glucose + 10% dialyzed FBS, 0.19 µM	105	106	88.4
RPMI 5 mM glucose + 10% dialyzed FBS, 0.569 µM	109	115	99.4
RPMI 5 mM glucose + 10% dialyzed FBS, 1.71 µM	107	110	93
RPMI 5 mM glucose + 10% dialyzed FBS, 5.12 µM	111	104	80.6
RPMI 5 mM glucose + 10% dialyzed FBS, 15.4 µM	106	107	78.4
RPMI 5 mM glucose + 10% dialyzed FBS, 46.1 µM	95.9	102	86.5

AUC of viability dose-response curve
Settings	NOMO1 [4]	P12-Ichikawa [6]	SEM cells [5]
HPLM + 10% dialyzed FBS	477	473	461
RPMI 5 mM glucose + 10% FBS	465	475	439
RPMI 5 mM glucose + 10% dialyzed FBS	477	469	430

COc1cc(-c2nn(C3CCC(N4CCN(C(C)=O)CC4)CC3)c3ncnc(N)c23)ccc1NC(=O)c1cc2ccccc2n1C (stereo not drawn)
cell viability [%]
Settings	NOMO1 [1]	P12-Ichikawa [3]	SEM cells [2]
HPLM + 10% dialyzed FBS, 0.000781 µM	–	117	121
HPLM + 10% dialyzed FBS, 0.00234 µM	–	114	117
HPLM + 10% dialyzed FBS, 0.00702 µM	–	114	123
HPLM + 10% dialyzed FBS, 0.0211 µM	–	128	113
HPLM + 10% dialyzed FBS, 0.0632 µM	–	115	123
HPLM + 10% dialyzed FBS, 0.19 µM	–	116	126
HPLM + 10% dialyzed FBS, 0.569 µM	–	107	123
HPLM + 10% dialyzed FBS, 1.71 µM	–	111	142
HPLM + 10% dialyzed FBS, 5.12 µM	–	103	121
HPLM + 10% dialyzed FBS, 15.4 µM	–	102	121
HPLM + 10% dialyzed FBS, 46.1 µM	–	83.9	101
RPMI 5 mM glucose + 10% FBS, 0.000781 µM	104	110	125
RPMI 5 mM glucose + 10% FBS, 0.00234 µM	117	114	117
RPMI 5 mM glucose + 10% FBS, 0.00702 µM	101	118	115
RPMI 5 mM glucose + 10% FBS, 0.0211 µM	109	115	109
RPMI 5 mM glucose + 10% FBS, 0.0632 µM	107	113	131
RPMI 5 mM glucose + 10% FBS, 0.19 µM	111	117	140
RPMI 5 mM glucose + 10% FBS, 0.569 µM	106	109	132
RPMI 5 mM glucose + 10% FBS, 1.71 µM	113	102	135
RPMI 5 mM glucose + 10% FBS, 5.12 µM	112	113	129
RPMI 5 mM glucose + 10% FBS, 15.4 µM	89.2	115	122
RPMI 5 mM glucose + 10% FBS, 46.1 µM	26.8	100	85.5
RPMI 5 mM glucose + 10% dialyzed FBS, 0.000781 µM	106	109	104
RPMI 5 mM glucose + 10% dialyzed FBS, 0.00234 µM	110	110	124
RPMI 5 mM glucose + 10% dialyzed FBS, 0.00702 µM	120	119	121
RPMI 5 mM glucose + 10% dialyzed FBS, 0.0211 µM	119	117	128
RPMI 5 mM glucose + 10% dialyzed FBS, 0.0632 µM	129	114	124
RPMI 5 mM glucose + 10% dialyzed FBS, 0.19 µM	115	106	111
RPMI 5 mM glucose + 10% dialyzed FBS, 0.569 µM	113	110	117
RPMI 5 mM glucose + 10% dialyzed FBS, 1.71 µM	112	109	130
RPMI 5 mM glucose + 10% dialyzed FBS, 5.12 µM	106	110	120
RPMI 5 mM glucose + 10% dialyzed FBS, 15.4 µM	109	103	113
RPMI 5 mM glucose + 10% dialyzed FBS, 46.1 µM	31.3	97.7	90

AUC of viability dose-response curve
Settings	NOMO1 [4]	P12-Ichikawa [6]	SEM cells [5]
HPLM + 10% dialyzed FBS	443	449	472
RPMI 5 mM glucose + 10% FBS	450	465	468
RPMI 5 mM glucose + 10% dialyzed FBS	460	460	468

O=C(NNC(=O)c1ccc(CN[S+](=O)([O-])c2ccc(F)c(Cl)c2)cc1)c1ccccc1
cell viability [%]
Settings	NOMO1 [1]	P12-Ichikawa [3]	SEM cells [2]
HPLM + 10% dialyzed FBS, 0.000781 µM	105	97.4	84.6
HPLM + 10% dialyzed FBS, 0.00234 µM	105	106	97.1
HPLM + 10% dialyzed FBS, 0.00702 µM	116	104	98.2
HPLM + 10% dialyzed FBS, 0.0211 µM	121	99	89.9
HPLM + 10% dialyzed FBS, 0.0632 µM	112	109	107
HPLM + 10% dialyzed FBS, 0.19 µM	103	107	109
HPLM + 10% dialyzed FBS, 0.569 µM	104	107	109
HPLM + 10% dialyzed FBS, 1.71 µM	117	109	102
HPLM + 10% dialyzed FBS, 5.12 µM	113	113	112
HPLM + 10% dialyzed FBS, 15.4 µM	82.7	105	106
HPLM + 10% dialyzed FBS, 46.1 µM	110	113	87
RPMI 5 mM glucose + 10% FBS, 0.000781 µM	84.1	99.8	92.9
RPMI 5 mM glucose + 10% FBS, 0.00234 µM	85.2	101	85.2
RPMI 5 mM glucose + 10% FBS, 0.00702 µM	85.2	98.7	92.5
RPMI 5 mM glucose + 10% FBS, 0.0211 µM	89.3	96.5	75
RPMI 5 mM glucose + 10% FBS, 0.0632 µM	92.9	112	91.5
RPMI 5 mM glucose + 10% FBS, 0.19 µM	99.5	100	98.3
RPMI 5 mM glucose + 10% FBS, 0.569 µM	93.3	106	102
RPMI 5 mM glucose + 10% FBS, 1.71 µM	91.3	98.6	105
RPMI 5 mM glucose + 10% FBS, 5.12 µM	96.7	91.6	88.2
RPMI 5 mM glucose + 10% FBS, 15.4 µM	94.5	114	104
RPMI 5 mM glucose + 10% FBS, 46.1 µM	92.6	105	106
RPMI 5 mM glucose + 10% dialyzed FBS, 0.000781 µM	92.1	87	79.6
RPMI 5 mM glucose + 10% dialyzed FBS, 0.00234 µM	98.5	98.3	76.6
RPMI 5 mM glucose + 10% dialyzed FBS, 0.00702 µM	107	98.3	89.6
RPMI 5 mM glucose + 10% dialyzed FBS, 0.0211 µM	94.2	102	97.4
RPMI 5 mM glucose + 10% dialyzed FBS, 0.0632 µM	111	103	96
RPMI 5 mM glucose + 10% dialyzed FBS, 0.19 µM	105	98.1	91.1
RPMI 5 mM glucose + 10% dialyzed FBS, 0.569 µM	103	102	93.1
RPMI 5 mM glucose + 10% dialyzed FBS, 1.71 µM	102	103	96.9
RPMI 5 mM glucose + 10% dialyzed FBS, 5.12 µM	115	103	87
RPMI 5 mM glucose + 10% dialyzed FBS, 15.4 µM	112	107	103
RPMI 5 mM glucose + 10% dialyzed FBS, 46.1 µM	115	101	64.5

AUC of viability dose-response curve
Settings	NOMO1 [4]	P12-Ichikawa [6]	SEM cells [5]
HPLM + 10% dialyzed FBS	468	460	463
RPMI 5 mM glucose + 10% FBS	437	466	449
RPMI 5 mM glucose + 10% dialyzed FBS	438	470	423
